Test system: cancer-related neuropathic pain
Test: Open label dose escalation study of flupirtine, case studies JE and RM
Settings: for WHO PERFORMANCE STATUS: 0=fully active, 4=completely disabled; for WHO PERFORMANCE STATUS / SCORE SLEEP / SCORE POOR CONCENTRATION: day 1 baseline 3; for neuropathic dwascriminant function score: >0 = neuropathic, day 1 baseline 2.448; for freezing pain score / score for increased pain due to touch / score for increased pain due to weather changes / squeezing pain score: day 1 baseline 0; for burning pain score: day 1 baseline 90; for electric pain score / for shooting pain score / numbness score / score for overly sensitive to touch / tingling pain score / unpleasant pain score: day 1 baseline 95; for overwhelming pain score: day 1 baseline 98; for SCORE MOOD / SCORE RELATIONSHIPS / SCORE SLEEP / SCORE GENERAL ACTIVITY / SCORE WALKING / SCORE ENJOYMENT / SCORE TOTAL ACTIVITY: pain interference 1-10; for SCORE MOOD / SCORE RELATIONSHIPS / SCORE CONSTIPATION / SCORE INDIGESTION / LEAST PAIN LAST 24 HRS / PAIN SCORE RIGHT NOW: day 1 baseline 1; for SCORE GENERAL ACTIVITY: day 1 baseline 5; for SCORE WALKING: day 1 baseline 7; for SCORE ENJOYMENT / SCORE TOTAL ACTIVITY / AVERAGE PAIN LAST 24 HOURS: day 1 baseline 8; for SCORE CONSTIPATION / SCORE INDIGESTION / SCORE NAUSEA / SCORE UN[…] GAIT / SCORE POOR CONCENTRATION / SCORE DROWSINESS / SCORE POOR APPETITE: scale 1-4; for SCORE NAUSEA / SCORE UN[…] GAIT: day 1 baseline 2; for SCORE DROWSINESS / SCORE POOR APPETITE: day 1 baseline 4; for LEAST PAIN LAST 24 HRS / PAIN SCORE RIGHT NOW / AVERAGE PAIN LAST 24 HOURS / WORST PAIN SCORE LAST 24 HOURS: scale to 10; for WORST PAIN SCORE LAST 24 HOURS: day 1 baseline 10
[1] = JE day 2, flupirtine 100 mg qid
[2] = JE day 3, flupirtine 100 mg qid
[3] = JE day 4, flupirtine 200 mg qid
[4] = JE day 5, flupirtine 100 mg qid

Structure (SMILES): CCOC(=O)Nc1ccc(NCc2ccc(F)cc2)nc1N [flupirtine]
- WHO PERFORMANCE STATUS [1]: 3
- neuropathic dwascriminant function score [1]: −1.238
- freezing pain score [1]: 0
- score for increased pain due to touch [1]: 0
- score for increased pain due to weather changes [1]: 0
- squeezing pain score [1]: 0
- burning pain score [1]: 20
- electric pain score [1]: 0
- for shooting pain score [1]: 10
- numbness score [1]: 0
- score for overly sensitive to touch [1]: 0
- tingling pain score [1]: 0
- unpleasant pain score [1]: 0
- overwhelming pain score [1]: 0
- SCORE MOOD [1]: 1
- SCORE RELATIONSHIPS [1]: 1
- SCORE SLEEP [1]: 1
- SCORE GENERAL ACTIVITY [1]: 1
- SCORE WALKING [1]: 1
- SCORE ENJOYMENT [1]: 1
- SCORE TOTAL ACTIVITY [1]: 1
- SCORE CONSTIPATION [1]: 3
- SCORE INDIGESTION [1]: 1
- SCORE NAUSEA [1]: 1
- SCORE UN[…] GAIT [1]: 1
- SCORE POOR CONCENTRATION [1]: 1
- SCORE DROWSINESS [1]: 4
- SCORE POOR APPETITE [1]: 1
- LEAST PAIN LAST 24 HRS [1]: 0
- PAIN SCORE RIGHT NOW [1]: 0
- AVERAGE PAIN LAST 24 HOURS [1]: 2
- WORST PAIN SCORE LAST 24 HOURS [1]: 2
- WHO PERFORMANCE STATUS [2]: 2
- neuropathic dwascriminant function score [2]: −1.408
- freezing pain score [2]: 0
- score for increased pain due to touch [2]: 0
- score for increased pain due to weather changes [2]: 0
- squeezing pain score [2]: 0
- burning pain score [2]: 0
- electric pain score [2]: 0
- for shooting pain score [2]: 0
- numbness score [2]: 0
- score for overly sensitive to touch [2]: 0
- tingling pain score [2]: 0
- unpleasant pain score [2]: 0
- overwhelming pain score [2]: 0
- SCORE MOOD [2]: 1
- SCORE RELATIONSHIPS [2]: 1
- SCORE SLEEP [2]: 1
- SCORE GENERAL ACTIVITY [2]: 1
- SCORE WALKING [2]: 1
- SCORE ENJOYMENT [2]: 1
- SCORE TOTAL ACTIVITY [2]: 1
- SCORE CONSTIPATION [2]: 1
- SCORE INDIGESTION [2]: 1
- SCORE NAUSEA [2]: 1
- SCORE UN[…] GAIT [2]: 1
- SCORE POOR CONCENTRATION [2]: 1
- SCORE DROWSINESS [2]: 3
- SCORE POOR APPETITE [2]: 1
- LEAST PAIN LAST 24 HRS [2]: 0
- PAIN SCORE RIGHT NOW [2]: 0
- AVERAGE PAIN LAST 24 HOURS [2]: 0
- WORST PAIN SCORE LAST 24 HOURS [2]: 0
- WHO PERFORMANCE STATUS [3]: 3
- neuropathic dwascriminant function score [3]: −1.408
- freezing pain score [3]: 0
- score for increased pain due to touch [3]: 0
- score for increased pain due to weather changes [3]: 0
- squeezing pain score [3]: 0
- burning pain score [3]: 0
- electric pain score [3]: 0
- for shooting pain score [3]: 0
- numbness score [3]: 0
- score for overly sensitive to touch [3]: 0
- tingling pain score [3]: 0
- unpleasant pain score [3]: 0
- overwhelming pain score [3]: 0
- SCORE MOOD [3]: 1
- SCORE RELATIONSHIPS [3]: 1
- SCORE SLEEP [3]: 1
- SCORE WALKING [3]: 1
- SCORE ENJOYMENT [3]: 1
- SCORE TOTAL ACTIVITY [3]: 1
- SCORE CONSTIPATION [3]: 3
- SCORE INDIGESTION [3]: 1
- SCORE NAUSEA [3]: 1
- SCORE UN[…] GAIT [3]: 4
- SCORE POOR CONCENTRATION [3]: 2
- SCORE DROWSINESS [3]: 4
- SCORE POOR APPETITE [3]: 1
- LEAST PAIN LAST 24 HRS [3]: 0
- PAIN SCORE RIGHT NOW [3]: 0
- AVERAGE PAIN LAST 24 HOURS [3]: 0
- WORST PAIN SCORE LAST 24 HOURS [3]: 0
- WHO PERFORMANCE STATUS [4]: 4
- neuropathic dwascriminant function score [4]: −1.408
- freezing pain score [4]: 0
- score for increased pain due to touch [4]: 0
- score for increased pain due to weather changes [4]: 0
- squeezing pain score [4]: 0
- burning pain score [4]: 0
- electric pain score [4]: 0
- for shooting pain score [4]: 0
- numbness score [4]: 0
- score for overly sensitive to touch [4]: 0
- tingling pain score [4]: 0
- unpleasant pain score [4]: 0
- overwhelming pain score [4]: 0
- SCORE MOOD [4]: 1
- SCORE RELATIONSHIPS [4]: 1
- SCORE SLEEP [4]: 1
- SCORE GENERAL ACTIVITY [4]: 1
